From patent US20130202629A1, “USES OF PHOSPHOLIPID CONJUGATES OF SYNTHETIC TLR7 AGONISTS” (The Regents of the University of California, priority 2010, published 2013) come the findings set out here.

The test system of assay [1] is TLR7. Briefly: IL-12 and IL-6 induction in BMDM from wild type and TLR7 deficient mice. Format: cell-based, mouse. Particulars: BMDM from TLR7 deficient (TLR7-KO) mice.
In assay [2] the target is T1, TLR7 (Mus musculus, UniProt P58681).
T1 construct: BMDM were prepared from C57BL/6 and TLR7 deficient mice; endogenous in cells; host or cells: RAW264.7 (ATCC); bone marrow derived macrophages from C57BL/6 mice
T1 sequence (P58681 27-1050): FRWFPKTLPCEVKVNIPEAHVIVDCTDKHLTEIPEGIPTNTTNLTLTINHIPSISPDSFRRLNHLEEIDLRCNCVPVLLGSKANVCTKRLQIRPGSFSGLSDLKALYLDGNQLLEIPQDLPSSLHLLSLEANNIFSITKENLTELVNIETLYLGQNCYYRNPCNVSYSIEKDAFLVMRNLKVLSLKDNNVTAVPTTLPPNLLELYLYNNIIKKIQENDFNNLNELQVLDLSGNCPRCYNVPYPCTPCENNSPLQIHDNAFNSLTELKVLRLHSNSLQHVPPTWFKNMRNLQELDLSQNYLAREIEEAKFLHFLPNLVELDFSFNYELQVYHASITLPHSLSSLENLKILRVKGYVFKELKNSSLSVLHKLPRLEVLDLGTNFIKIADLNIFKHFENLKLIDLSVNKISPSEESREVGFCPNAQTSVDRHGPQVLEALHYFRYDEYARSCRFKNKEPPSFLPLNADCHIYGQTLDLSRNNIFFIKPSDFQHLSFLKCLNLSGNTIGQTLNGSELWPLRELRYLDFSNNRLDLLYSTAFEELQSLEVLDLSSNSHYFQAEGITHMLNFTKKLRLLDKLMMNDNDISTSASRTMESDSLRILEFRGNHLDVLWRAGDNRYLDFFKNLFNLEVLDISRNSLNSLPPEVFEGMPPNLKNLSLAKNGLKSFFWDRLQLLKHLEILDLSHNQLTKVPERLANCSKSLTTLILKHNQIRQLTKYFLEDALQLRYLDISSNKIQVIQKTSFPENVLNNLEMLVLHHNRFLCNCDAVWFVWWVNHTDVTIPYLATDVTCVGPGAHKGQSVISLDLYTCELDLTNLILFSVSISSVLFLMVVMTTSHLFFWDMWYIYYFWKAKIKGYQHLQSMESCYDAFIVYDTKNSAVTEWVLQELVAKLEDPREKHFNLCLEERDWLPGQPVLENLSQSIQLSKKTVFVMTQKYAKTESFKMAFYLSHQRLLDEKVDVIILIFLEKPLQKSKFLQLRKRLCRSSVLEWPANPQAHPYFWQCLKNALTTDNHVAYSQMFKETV
Briefly: In vitro cytokine induction (TNF-alpha, IL-6, IL-12; ELISA) in murine macrophages: RAW264.7 cells and BMDM. To be noted: normalized to the molar level of the unconjugated agonist (SM). The assay is classed as cell-based. The protocol:
In vitro measurements of cytokine induction were performed using the mouse leukemic monocyte macrophage cell line, RAW264.7. […] BMDM were prepared from C57BL/6 and TLR7 deficient mice as described in Wu, C. C et al., “Immunotherapeutic activity of a conjugate of a Toll-like receptor 7 ligand”, Proc. Natl. Acad. Sci. USA, 104:3990 (2007).
In general, RAW264.7 cells or BMDM were incubated with various concentrations of conjugates for 18 hours at 37° C., 5% CO2 and culture supernatants were collected. The levels of cytokines (IL-6, IL-12 or TNF-α in the supernatants were determined by ELISA (BD Biosciences Pharmingen, La Jolla, Calif.) (Cho, H. J et al., “Immunostimulatory DNA-based vaccines induce cytotoxic lymphocyte activity by a T-helper cell-independent mechanism” [see comments], Nat. Biotechnol., 18:509 (2000)), and the results presented in FIGS. 2A-D. Data are mean±SEM of triplicates and are representative of three independent experiments. Minimum detection levels of these cytokines were 15 pg/mL.
TNFα levels were measured (see FIG. 2A) by incubating approximately 1×10^6/mL RAW 264.7 cells with the various conjugates or controls, as described above. IL-6 and IL-12 levels were measured (see FIGS. 2B-D) by incubating 0.5×10^6/mL BMDM with the various conjugates or controls, as described above. […]
On the technique in general: An ELISA detects its analyte on a solid surface through an enzyme-linked reagent.

The subject of assay [3] is C57BL/6 mice or caspase 1 deficient. Briefly: Induction of bladder inflammation by intravesical treatment. Format: in vivo, mouse. Particulars: intravesical 150 nmoles. From the text:
C57BL/6 mice or caspase 1 deficient were intravesically treated with 150 nmoles 1V270 or vehicle alone three times at two-day intervals. One set of mice was sacrificed twenty-four hours after the first treatment (FIG. 7). Another set of mice was sacrificed twenty-four hours after the third treatment. […] This inflammation was not detected in the caspase 1 deficient mice.

Assay [4] deals with Anthrax Sterne strain spores. Format: in vivo, Bacillus anthracis.

Turning to `CCCCCCCC/C=C\CCCCCCCC(=O)OCC(COP(=O)(O)OCCNC(=O)c1ccc(Cn2c(=O)[nH]c3c(N)nc(OCCOC)nc32)cc1)OC(=O)CCCCCCC/C=C\CCCCCCCC` (stereo not shown) [Compound 6, 2-(4-((6-amino-2-(2-methoxyethoxy)-8-oxo-7H-purin-9(8H)-yl)methyl)benzamido)ethyl 2,3-bis(oleoyloxy)propyl phosphate], in the assay with TLR7 [1], the “IL-12 and IL-6 induction in TLR7 deficient BMDM” value was “little or no IL-12 and IL-6”. In addition, the “potency as cytokine inducer relative to the unconjugated agonist” value at TLR7 [2] was determined as 10 fold. The “bladder inflammation (mononuclear cell infiltration)” value in assay [3] (C57BL/6 mice, three times at two-day intervals) was “infiltration of mononuclear cells were observed and increased after the third treatment”. The “bladder inflammation in caspase 1 deficient mice” value in assay [3] (caspase 1 deficient mice) was “not detected”. Besides, the “survival on day 30, long term experiment” value in assay [4] (IRS mixed with 1 nmol, i.n. three times at two week intervals, challenge four weeks later) was found to be 100%. Further, the “survival on day 15, short term experiment” value in assay [4] (IRS with 1 nmol, single vaccination, challenge six days later) is “More than half”. Moreover, the “effective dose, unformulated in DMSO” value in assay [4] (adjuvant with IRS) turned out to be 1 nmol. In addition, the “efficacy compared with cholera toxin (CT) as adjuvant” value in assay [4] (in vivo) was “slightly more effective than mice that received CT as an adjuvant”. For the same compound, the “protection from pulmonary anthrax infection” value in assay [4] (mucosal immunization with killed anthrax spores) is on record as “completely protected mice from pulmonary anthrax infection”. The “spore-specific cellular immune responses” value in assay [4] (splenocytes of surviving mice cultured with IRS for 5 days) was “induced spore-specific Th1 and Th17 cellular immune responses”.
